Laboratory results: patent US9163044B2, “Carbon monoxide releasing molecules and uses thereof” (Alfama, Inc., priority 2011, dated 2015)

What was measured:
[1] = tissue CO distribution in CD-1 female mice; format: in vivo; settings: for CO levels in the liver compared with blood, kidney, heart and lung tissues (in words): 50 mg/kg i.v., CD-1 female mice
From the text: Carbon monoxide-releasing molecules (CO-RMs) are carriers of carbon monoxide (CO) and can release CO in vivo. CO can bind to hemoglobin in the blood and to various heme proteins in cells. Vreman et al. Anal Biochem 341:280-289 describes a method to release CO bound to tissues into the gas phase, and quantify it using GC-RCP chromatography. We applied this methodology to assay CO in various tissues of mice treated with CO-RMs (see Example 2, herein). However, since the CO release method of Vreman (in vitro incubation with sulfosalicylic acid) also releases CO from the CO-RM, the CO released from tissue samples represents CO bound to tissue proteins and CO from CO-RM compound accumulated in tissue. For CO-RM compounds with slow CO release rates in vivo, the CO measured at the earliest sampling point (5 min after CO-RM administration) may therefore mostly be a measure for the tissue distribution of the intact CO-RM.
The compound was dissolved in PBS and the acids neutralized with 3 eq. NaOH (from a NaOH stock solution 2.5M). The pH was brought down to about 7.5 by adding HCl (from a stock solution 1 M). The compound was then administered i.v. (50 mg/kg in 150 μL) to two CD-1 female mice (Charles River). The mice were warmed for ten minutes under an infrared lamp to facilitate the i.v. administration into a tail vein. Five and twenty minutes after the dosing, the two mice were anesthetized with IsoFluorane, and the blood was collected from the retro-orbital plexus using a Pasteur pipette containing ˜20 μL of heparin solution. The animal was opened; the portal vein was cut and the organs were perfused by injecting 10-15 mL of cold PBS in the left ventricle of the heart. Then the heart, kidneys, liver and lung were collected, briefly washed with potassium phosphate buffer, dried with a paper towel and snap frozen in liquid nitrogen. Samples of the freshly collected blood were transferred to AVOXimeter 4000 cuvettes (ITC) to measure the levels of carboxyhemoglobin (COHb), oxyhemoglobin (O2Hb) and methemoglobin (MetHb) using a portable AVOXimeter 4000 CO-oximeter. The results are shown as mean percentage of total hemoglobin species in circulation. The organs and blood were conserved at −20° C. until the CO quantization was done.
For CO quantization, the protocol described by Vreman et al was followed. The organs were cut into small pieces, which were weighed and 4 volumes of water (a volume corresponding to four times the weight of the tissue sample) were added to each organ sample. The tissues were homogenized using a tissue tearer. Aliquots of homogenate ([…]) were placed into vials to which were added water ([…]) and sulfosalicylic acid (SSA, 5 μL, 30% [wt/vol]) immediately before they were closed with a gas-tight septum cap. The vials were incubated on ice for at least 20 min before being analyzed by GC-RCP (in later experiments, the incubation time was extended to 45 minutes). The amount of CO was calculated using a calibration curve prepared from CO standards. […] COHb was determined using an oximeter (AVOXimeter 4000, USA).
Table 6 provides the CO distribution in blood, heart, liver, lung and kidney following Compound 3b administration at 50 mg/kg by […]. CO was assayed by GC-RCP, 5 and 20 minutes after administration of the compound. The CO concentration in the several organs is normalized to the amount of CO quantified in the blood (CO concentration as fraction of concentration in blood 50 mg/kg Compound 3b injected i.v. at t=0; CO assayed in tissues by GC at t=5 min and t=20 min).

[2] = CO release kinetics in the presence of rat liver microsomes, K-phosphate buffer (pH 7.4); format: in vitro ADME; settings: for effect of liver microsomes on CO release / decay (in words): compared with incubation without microsomes; for CO eq. released in 1 h, Microsomes K-phosphate buffer (pH 7.4): with microsomes, 10 μM, 37° C., dark
Description: General Method for the CO Release in the Presence of Liver Microsomes
The CO release kinetics of Compounds 1b, 2b, 3b, 4b, and 5b were also evaluated in the presence of rat or human liver microsomes. In a 8-mL vial, the following reagents were combined:
200 μL of 0.5 M potassium phosphate buffer, pH 7.4
50 μL of NADPH regenerating system solution A (BD, Cat. No. 451220)
10 μL of NADPH regenerating system solution B (BD, Cat. No. 451200)
2 μL of 5 mM solution of the compound in DMSO (10 μM final concentration)
The vials were closed and after mixing, the samples were warmed to 37° C. for 5 minutes before an aliquot (25 μL, 0.5 mg protein content) of rat liver microsomes (BD, Cat. No. 452511) or human liver microsomes (BD, Cat. No. 452161) was added to each vial. In parallel analogous vials with all the reagents except the microsomes were prepared. Due to the light-sensitivity of the molybdenum compounds, the reactions were performed in the dark. The samples were incubated at 37° C. and gas samples of the headspace (from 100 μL to 500 μL) of the vials were removed with a gas-tight syringe after 5, 10, 15, 30, and 60 minutes (in some cases samples were also taken at 1, 2, 3 or 4 minutes) upon microsomes addition. The gas samples were then injected into empty sealed vials (8 mL volume) and the amount of CO present in the vials was measured using GC-RCP.
The CO equivalents released at each time point from each compound were determined by the following equation: (CO released (pmol)×number of CO ligands in the molecule)/([CO] in the compound (pmol)). A 1 mL solution of a tri-carbonyl compound, at 50 μM concentration contains a total of 150,000 pmol of CO.

[3] = storage stability of the solid; format: physicochemical; settings: brown vials, ambient temperature, under N2
From the text: Following the procedure described by Beck and coworkers (Achatz et al., Anorg. Allg. Chem (2005) 631:2339-2346) saponification of compound (3-a) or (3-c) with NaOH followed by protonation with an acid (e.g., HCl or H2SO4) in aqueous solution led to the formation of tricarbonyl[tris(2-isocyano-2-methyl-propionic acid)]Mo(0) (3-b). Compound (3-b) is stable when stored in brown vials at ambient temperature under N2 for over 6 months or more.

[4] = in vitro metabolism study: decay on incubation with liver microsomes; format: in vitro ADME; settings: one hour / 60 minutes incubation
Description: Sixty percent decay could release up to 1.8 molar equivalents of CO. […] Therefore liver microsomes accelerate the decomposition of the compound. […] Microsomes were incubated with Compound 1b using closed vials to enable quantitative measurement of the released CO. As a control, Compound 1b was incubated under similar conditions in the absence of microsomes.
In an in vitro metabolism study of the CO release kinetics of Compound 3b, it was determined that 80% of Compound 3b decayed in 60 minutes incubation with liver microsomes. In order to investigate if this accelerated decomposition of Compound 3b in the presence of microsomes was inducing a faster CO release from the compound, the CO release profile of Compound 3b in the presence of liver microsomes was determined. Microsomes were incubated with Compound 3b using closed vials to enable quantitative measurement of the released CO. As a control, Compound 3b was incubated under similar conditions in the absence of microsomes. […] The initial rate of CO release is 0.0297 CO equivalents (297.22 pmol) per minute in the presence of microsomes and 0.0072 CO equivalents (72.265 pmol) per minute in the absence of microsomes.

Row | Compound | CO levels in the liver compared with blood, kidney, heart and lung tissues (in words) [1] | CO concentration as fraction of concentration in blood: Blood, 5 min ([1]; 50 mg/kg, blood, t=5 min) | CO concentration as fraction of concentration in blood: Blood, 20 min ([1]; 50 mg/kg, blood, t=20 min) | CO concentration as fraction of concentration in blood: Heart, 5 min ([1]; 50 mg/kg, heart, t=5 min) | CO concentration as fraction of concentration in blood: Heart, 20 min ([1]; 50 mg/kg, heart, t=20 min) | CO concentration as fraction of concentration in blood: Kidney, 5 min ([1]; 50 mg/kg, kidney, t=5 min) | CO concentration as fraction of concentration in blood: Kidney, 20 min ([1]; 50 mg/kg, kidney, t=20 min) | CO concentration as fraction of concentration in blood: Liver, 5 min ([1]; 50 mg/kg, liver, t=5 min) | CO concentration as fraction of concentration in blood: Liver, 20 min ([1]; 50 mg/kg, liver, t=20 min) | CO concentration as fraction of concentration in blood: Lung, 5 min ([1]; 50 mg/kg, lung, t=5 min) | CO concentration as fraction of concentration in blood: Lung, 20 min ([1]; 50 mg/kg, lung, t=20 min) | CO concentration in the liver relative to blood ([1]; five minutes after i.v. injection) | effect of liver microsomes on CO release / decay (in words) [2] | initial CO release rate, presence versus absence of microsomes ([2]; ratio with/without microsomes) | CO eq. released in 1 h, Microsomes K-phosphate buffer (pH 7.4) [2] | stable when stored [3] | compound decayed on incubation with liver microsomes [4] [%]
1 | [C-]#[N+]C(C)(C)C(=O)O.[C-]#[N+]C(C)(C)C(=O)O.[C-]#[N+]C(C)(C)C(=O)O.[C-]#[O+].[C-]#[O+].[C-]#[O+].[Mo] [Compound 3b, tricarbonyl[tris(2-isocyano-2-methyl-propionic acid)]Mo(0)] | increased CO levels in the liver | 1 | 1 | 0.046 ± 0.012 | 0.072 ± 0.055 | 0.419 ± 0.295 | 0.074 ± 0.028 | 5.26 ± 3.18 | 0.163 ± 0.062 | 0.049 ± 0.020 | 0.060 ± 0.046 | five times higher in the liver than in blood | increased rate of CO release | approximately 4 times faster | (1.5CO eq. in 1 h) | over 6 months | 80
2 | CC([N+]#[C][Mo-6]([C]#[O+])([C]#[O+])([C]#[O+])([C]#[N+]C(C)C(=O)O)[C]#[N+]C(C)C(=O)O)C(=O)O (stereo not drawn) [Compound 2b, tricarbonyl[tris(2-isocyanopropionic acid)]Mo(0)] | increased CO levels in the liver |  |  |  |  |  |  |  |  |  |  |  | accelerated the decay |  | (0.9CO eq. in 1 h) |  | 
3 | tricarbonyl[tris(isocyanoacetic acid)]Mo(0) [Compound 1b] | no preferential accumulation of CO in the liver |  |  |  |  |  |  |  |  |  |  |  | increased rate of CO release |  | (1.1CO eq. in 1 h) |  | 60
